Assay results from PubChem BioAssay (NCI).
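Cultured in 96-well plates, cells were exposed to test compound for 48 hours across five concentrations. The concentration for full growth arrest is given as TGI.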 Where a SMILES comes first, the peptide text is derived from it. The star is where a group is joined. Cbz = O=C(OCc1ccccc1)*

Legend:
Assay in all cases: DTP human tumour cell line panel, 48 h
[1] = tested on: A549 NSCLC
[2] = tested on: DU-145 prostate
[3] = tested on: HOP-62 NSCLC
[4] = tested on: KM12 colon
[5] = tested on: LOX IMVI melanoma
[6] = tested on: NCI-H23 lung
[7] = tested on: OVCAR-3 ovarian
[8] = tested on: SF-268 CNS
[9] = tested on: SW-620 colon
[10] = tested on: UACC-62 melanoma
[11] = tested on: HCC-2998 colon
[12] = tested on: RPMI-8226 leukemia
[13] = tested on: HL-60(TB) leukemia

SMILES | TGI [1] [µM] | TGI [2] [µM] | TGI [3] [µM] | TGI [4] [µM] | TGI [5] [µM] | TGI [6] [µM] | TGI [7] [µM] | TGI [8] [µM] | TGI [9] [µM] | TGI [10] [µM] | TGI [11] [µM] | TGI [12] [µM] | TGI [13] [µM]
C(=Nc1ccc2c(c1)Cc1ccccc1-2)c1ccccn1 | > 100 | > 100 | > 100 | > 100 | > 100 | > 100 | > 100 | > 100 | > 100 | > 100 | – | – | –
COc1ccc(C2(CC(C)C)CCN(S(=O)(=O)c3ccc(C)cc3)C2)cc1OC (stereo not drawn) | > 100 | > 100 | > 100 | 68 | 74.3 | > 100 | 55.8 | 95.4 | > 100 | > 100 | > 100 | – | –
Cn1nnnc1SC(F)(F)c1nc2ccccc2o1 | > 100 | > 100 | > 100 | > 100 | – | > 100 | > 100 | > 100 | > 100 | > 100 | > 100 | > 100 | –
CC(=O)OCCOCNC(=S)N/N=C/c1ccc([N+](=O)[O-])s1 | > 100 | – | > 100 | > 100 | > 100 | 43.1 | > 100 | > 100 | > 100 | > 100 | > 100 | > 100 | 11.5
CC(=O)O[C@]12CCCCCC1C1(O)C(O)CCCCC12 (stereo partly drawn) | > 100 | – | > 100 | > 100 | > 100 | > 100 | – | > 100 | > 100 | > 100 | – | > 100 | > 100
NC1(CCNC(=O)c2ccccc2)CCN(C(=O)c2ccccc2)CC1 | > 100 | > 100 | – | > 100 | – | > 100 | – | > 100 | > 100 | > 100 | – | > 100 | –
Nc1c(S(=O)(=O)c2ccccc2)c2nc3ccccc3nc2n2c1nc1ccccc12 | > 100 | – | > 49.6 | > 100 | > 100 | > 50 | > 100 | > 72.9 | > 100 | > 100 | > 100 | > 100 | > 100
Cc1cc(C)nc(NC(P(=O)(O)O)P(=O)(O)O)n1 | > 100 | > 100 | > 100 | > 100 | > 100 | > 100 | > 100 | > 100 | – | > 100 | > 100 | – | –
C[n+]1c2ccccc2c(NC(CCCN=C(N)N)C(=O)O)c2ccccc21 (stereo not drawn) | > 100 | – | > 100 | > 100 | – | > 100 | > 100 | > 100 | > 100 | > 100 | > 100 | > 100 | > 100
C=C1CC[C@H]2C(=O)OC(c3ccoc3)C[C@]2(C)C/C=C\C=C/1C(=O)OC (stereo partly drawn) | > 25 | – | > 25 | > 25 | > 25 | > 25 | > 25 | – | > 25 | > 25 | > 25 | – | –
O=c1cc(CF)[nH]c(=S)[nH]1 | > 100 | > 100 | > 100 | > 100 | > 100 | > 100 | > 100 | > 100 | > 100 | > 100 | > 100 | – | –
O=Cc1ccc(-c2ccc(-c3ccc(CO)s3)o2)s1 | 98.8 | > 71.6 | > 84.3 | > 100 | 16.2 | > 76.7 | – | > 76.1 | > 100 | 6.03 | 18.3 | – | > 22.3
COc1cc2nc(-c3cccs3)nc(Cl)c2cc1OC | > 100 | > 100 | > 100 | > 100 | – | > 100 | > 100 | > 100 | > 100 | > 100 | – | – | > 100
CCOC(=O)CCC1(CCC(=O)OCC)CCCCCCCCC(CCC(=O)OCC)(CCC(=O)OCC)C(=O)C1=O | > 100 | > 100 | > 100 | > 100 | > 100 | > 100 | > 100 | > 100 | > 100 | > 100 | > 100 | – | –
CC(=O)c1c(N=[N+]=[N-])c2cccc3c2n(c1=O)CCC3 | > 100 | – | 42.3 | 28.7 | 40.8 | 45.6 | 18.9 | 38.6 | 30.7 | 35.1 | 32 | 66.9 | –
CCOC(=O)c1ccc(-c2ccc(Cl)cc2)[nH]1 | > 10 | > 10 | – | > 10 | – | > 10 | > 10 | > 10 | – | > 10 | > 10 | – | > 10
CCOC(=O)CCC(NC(=O)c1ccc(NCc2ccc3nc(-c4ccccc4)c(Cl)nc3c2)cc1)C(=O)OCC (stereo not drawn) | > 100 | – | > 100 | > 100 | > 100 | > 100 | 59.2 | > 100 | > 100 | – | > 100 | 81.2 | > 100
CC(=O)Nc1c(C(=N)C#N)ncn1CCO | > 100 | > 100 | > 100 | > 100 | > 100 | > 100 | > 100 | > 100 | > 100 | > 100 | > 100 | > 100 | –
Cc1n[n+](Cc2ccccc2)c2sc(N)nn12 | > 100 | > 100 | > 100 | > 100 | > 100 | > 100 | > 100 | > 100 | > 100 | 38.5 | – | > 100 | –
O=C(Cn1c2ccc(Br)cc2c2nc3ccccc3nc21)NNC(=S)NC1CCCCC1 | 22.4 | 29.4 | 30.6 | 48.2 | 24.9 | 30.5 | 22.8 | 39.6 | 29.2 | 43.2 | 34.6 | 26.8 | –
Cc1ccc(NC(=O)C(=O)C2C(=O)NC(=O)NC2=O)cc1C | > 100 | – | > 100 | > 100 | > 100 | > 100 | > 100 | > 100 | > 100 | > 100 | > 100 | > 100 | > 100
CN1CCN(/C(N)=C(\C#N)C(=O)Nc2ccc(Cl)cc2)CC1 | > 100 | > 100 | > 100 | > 100 | > 100 | > 100 | > 100 | – | > 100 | 58.9 | > 100 | > 100 | –
O=C1/C(=C\c2cccc(Oc3ccccc3)c2)S(=O)(=O)C(c2ccccc2)N1c1cccc(Cl)c1 (stereo not drawn) | > 100 | > 100 | > 100 | > 100 | 44.8 | > 100 | > 100 | > 100 | 69 | > 100 | > 100 | 78.8 | –
O=C1c2ccccc2C(=O)N1C/C=N/NS(=O)(=O)c1ccc(Br)cc1 | > 100 | – | > 100 | > 100 | – | > 100 | > 100 | > 100 | > 100 | > 100 | > 100 | > 100 | > 100
CCOC(=O)CCC(NC(=O)OCc1ccccc1)C(=O)NC(CCC(=O)OCC)C(=O)OCC (stereo not drawn) (Cbz-Glu(OEt)-Glu(OEt)-OEt; configuration not given here) | > 100 | > 100 | > 100 | > 100 | > 100 | > 100 | > 100 | > 100 | > 100 | > 100 | > 100 | > 100 | –
COc1cccc(-c2nc(-c3cnccn3)n(C/C=C/c3ccccc3)n2)c1 | > 10 | – | – | > 10 | > 10 | > 10 | > 10 | > 10 | > 10 | > 10 | > 10 | – | –
CN1CCCOC(c2ccc(Cl)cc2)O1 (stereo not drawn) | > 100 | > 100 | > 100 | > 100 | > 100 | > 100 | > 100 | > 100 | > 100 | > 100 | > 100 | – | –
O=C1CC(=O)NC(=NN2C(=O)/C(=C/c3ccc(Cl)c(Cl)c3)N=C2c2ccccc2)N1 | > 100 | > 100 | 79.6 | 40.1 | – | > 100 | 49.4 | > 100 | > 100 | 32.6 | 39.6 | 47 | –
CCCC(=O)[O-].CCCC(=O)[O-].NCCN.NCCN.[Co+3].[O-][Cl+3]([O-])([O-])[O-] | > 100 | – | > 100 | > 100 | > 100 | > 100 | > 100 | > 100 | > 100 | > 100 | > 100 | > 100 | –
CSc1ccc2c(cc1=O)[C@@H](NC(=O)c1cc(O)c(O)c(O)c1)CCc1cc(O)c(O)c(O)c1-2 | 92 | – | > 100 | 46.8 | – | 39.7 | 70 | > 100 | 39.6 | 36.8 | > 100 | – | 40.7
